Reference: paper PMC6858345, “Structural insights into heme binding to IL-36α proinflammatory cytokine” (Scientific Reports, 2019)
Residue numbers refer to the chain shown, from its start. In names and notes the source's numbering stands. Read-outs that look alike come from different tables or passages of the source. Each block holds one molecule with its values, some of them ahead of it.

How the values were obtained:
[1] = Surface plasmon resonance (SPR) of heme binding to immobilized proteins, single-cycle kinetics
Protocol: SPR measurements were performed on a Biacore T200 instrument (GE Healthcare Europe GmbH, Freiburg, Germany) at 25 °C. The running buffer was 10 mM HEPES (pH 7.4), 150 mM NaCl, 0.05% Tween 20. The proteins BSA (VWR Life Science AMRESCO, Germany), lysozyme (AppliChem GmbH, Darmstadt, Germany), IL-36α (protein expression), trIL-36α (R&D Systems, Minneapolis, MN, USA), trIL-36β (isoform 2, R&D Systems, Minneapolis, MN, USA) and trIL-36γ (R&D Systems, Minneapolis, MN, USA) were covalently immobilized by amine coupling on a CM5 sensor chip (GE Healthcare). Briefly, lysozyme was diluted to a final concentration of 2.5 µg/mL in acetate buffer (pH 7.0), and BSA was diluted to 2.5 µg/mL in acetate buffer (pH 5.0). trIL-36α, trIL-36β, and trIL-36γ were diluted to 0.85 µg/mL in acetate buffer (pH 4.0). Subsequently, the proteins were separately injected at 10 µL/min on an EDC/NHS activated flow cell until immobilization levels of 1600 RU (lysozyme), 1050 RU (trIL-36α), 2900 RU (BSA), 937 RU (trIL-36β), and 320 RU (trIL-36γ) were achieved. An activated/deactivated flow cell was used for reference subtraction. […]

[2] = Fluorescence quenching of heme-incubated proteins; type: binding; settings: λex 306 nm, λem 352 nm; protein 1 µM, heme 0.1-16 µM
Protocol: All measurements were performed on a fluorescence spectrophotometer FP-8300 (Jasco, Tokyo, Japan). BSA (1 µM) and lysozyme (1 µM) were dissolved in PBS buffer (pH 7.4) and IL-36α variants (1 µM) in 20 mM sodium phosphate buffer (pH 6.9), were each dissolved in and incubated for 60 minutes with varying heme concentrations (0.1–16 µM) in the dark. Parameters were set to excitation at 306 nm, emission at 352 nm, bandwidth 10 nm (extinction) and 20 nm (emission)[30].

IL-36α = target: T1, IL-36α (Homo sapiens, UniProt Q9UHA7); test: UV/Vis differential spectroscopy, protoporphyrin IX applied to IL-36α; type: binding
T1 construct: three additional amino acids (Gly-Ser-His) attached at the N-terminus of full-length IL-36α (161 amino acids); His6 tag with thrombin cleavage site (N, cleaved yes); made in house; host or cells: Escherichia coli BL21(DE3), pET-28a
T1 sequence (Q9UHA7 6-158): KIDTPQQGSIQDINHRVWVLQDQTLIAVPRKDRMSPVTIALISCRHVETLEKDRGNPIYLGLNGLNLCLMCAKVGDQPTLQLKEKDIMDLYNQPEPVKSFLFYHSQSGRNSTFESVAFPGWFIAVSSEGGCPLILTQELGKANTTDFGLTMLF
Protocol: (§1) A Multiskan GO microplate spectrophotometer (ThermoFisher Scientific, Dreieich, Germany) was used for UV/Vis measurements. Heme and peptide solutions were prepared in 100 mM Hepes buffer (pH 7.0). IL-36 cytokines (~5 µM), dissolved in 20 mM sodium phosphate buffer (pH 6.9), were incubated with heme (0.2 to 40 µM) in the dark at room temperature for 60 minutes before UV/Vis spectra were measured at 300 to 600 nm. Protein concentrations were corrected using the calculated molar absorption coefficient at 280 nm. Peptides 1–7 (20 µM) were incubated with heme for 30 minutes in the dark at room temperature.

[3] = UV/Vis differential spectroscopy of heme-incubated proteins and peptides; type: binding; settings: peptide 20 µM, 30 min, 100 mM Hepes pH 7.0; read-out: KD for UV/Vis, IL-36α-derived peptides
Protocol: as §1

[4] = Peroxidase-like activity of heme complexes; type: biochemical; settings: protein:heme 1:1 and 1:2
Excerpt: A peroxidase-like activity of heme-peptide/protein complexes has been discussed to be critical due to cytotoxic ROS formation[4],[43]–[45]. We thus tested the peroxidase-like activity of IL-36α-heme-complexes in two different ratios (1:1 and 1:2, protein:heme) as well as of both heme-binding motifs (CP, YH) on the peptide level (Supplementary Fig. S5E).

[5] = test system: synovial fibroblast-like synoviocytes (FLS) from RA patients; test: IL-6/IL-8 mRNA expression (qRT-PCR) in stimulated FLS; type: cell-based, human; settings: 24 h; for IL-6 and IL-8 expression (mRNA) in FLS: IL-36α 5.8 nM, heme 0.15 and 1.5 µM (ratios 26:1 and 260:1)
Protocol: Human fibroblast-like synoviocytes (FLS) were isolated from knee joints of rheumatoid arthritis patients obtained at the University Hospital Erlangen-Nuremberg[69]. All patients gave written informed consent, and their use for research was approved by the ethics committee of the University hospital Erlangen (ethic licenses 4013 and 4065). We confirm that all methods were performed in accordance with the relevant guidelines and regulations. Human RA FLS kept at 37 °C and 5% CO2 in a humidified incubator upon isolation. They were cultured in RPMI and DMEM at a ratio of 1:5, supplemented with 50 U/mL penicillin, 50 μg/mL streptomycin, 0.2% amphotericin and 2% fetal bovine serum. Cells between passages 3 to 8 were used. For stimulation experiments, human FLS from RA patients were seeded at a concentration of 100,000 cells/mL in 500 μL culture medium in a 48-well plate one day prior to the experiment. […] Cells were then incubated for either 5 min (western blot analysis of phosphorylation) or 24 h (qPCR and ELISA). Sample separation was performed by a reducing […] (10% SDS polyacrylamide gel) and blotted to a nitrocellulose membrane by semi-dry transfer. […] Cell viability was analyzed using the AlamarBlue assay according to the manufacturer's instruction (#741802, Invitrogen, Carlsbad, CA, USA), and absorbance was measured at 570 nm and 600 nm. For performing quantitative real-time PCR (qRT-PCR), RNA was isolated from FLS with […], Germany), followed by first-strand cDNA synthesis using the MultiScribeTM MuLV reverse transcriptase (Applied Biosystems, Foster City, CA, USA), both according to manufacturer's instruction. Relative gene expression was assessed by qRT-PCR using the Applied Biosystems 7500 fast-real-time-PCR System (Applied Biosystems) with SYBR® Select Master Mix (ThermoFisher Scientific) as detection method, according to the manufacturer's manual. Samples and the housekeeping gene GAPDH as endogenous control were analyzed in duplicates. […]

[6] = test system: synovial fibroblast-like synoviocytes (FLS) from RA patients; test: p38 activation in FLS (western blot of P-p38); type: cell-based, human; settings: 5 min stimulation
Protocol: Human fibroblast-like synoviocytes (FLS) were isolated from knee joints of rheumatoid arthritis patients obtained at the University Hospital Erlangen-Nuremberg[69]. All patients gave written informed consent, and their use for research was approved by the ethics committee of the University hospital Erlangen (ethic licenses 4013 and 4065). We confirm that all methods were performed in accordance with the relevant guidelines and regulations. Human RA FLS kept at 37 °C and 5% CO2 in a humidified incubator upon isolation. They were cultured in RPMI and DMEM at a ratio of 1:5, supplemented with 50 U/mL penicillin, 50 μg/mL streptomycin, 0.2% amphotericin and 2% fetal bovine serum. Cells between passages 3 to 8 were used.
For stimulation experiments, human FLS from RA patients were seeded at a concentration of 100,000 cells/mL in 500 µL culture medium in a 48-well plate one day prior to the experiment. Before stimulation of FLS, heme was pre-incubated with trIL-36α or trIL-36α protein mutants with substituted amino acids in the proposed heme-binding site in medium for 1 h at room temperature in the dark. […] Cell viability was analyzed using the AlamarBlue assay according to the manufacturer’s instruction (#741802, Invitrogen, Carlsbad, CA, USA), and absorbance was measured at 570 nm and 600 nm.

[7] = design: method as in PMID 23730736; settings: UV shift to ~366 nm; read-out: Heme binding affinity of the 9mer CP-motif (UV/Vis); cited from earlier work

Heme binding by SPR (in words) [1]: non-binder | Heme binding by fluorescence quenching (in words) [2]: non-binder
Molecule: Lysozyme: negative control (non-binder) for heme binding [reference compound]

Molecule: C=CC1=C(C)c2cc3[nH]c(cc4nc(cc5[nH]c(cc1n2)c(C)c5CCC(=O)O)C(CCC(=O)O)=C4C)c(C)c3C=C [protoporphyrin IX (PPIX), protoporphyrin IX]
Effect on UV/Vis differential spectrum of IL-36α (IL-36α): No effect

Kd [3]: 4.48 ± 2.2 µM | Peroxidase-like activity relative to heme (100%) [4]: No significant increase
Molecule: FLFY108H109SQSG (FLFYHSQSG; UniProt Q9UHA7 105-113, looked up, fragment) [Peptide 1, IL-36α-derived 9mer wild-type YH motif peptide]

Molecule: C=CC1=C(C)C2=Cc3c(C=C)c(C)c4[n]3[Fe+][n]3c(c(C)c(CCC(=O)O)c3=CC3=NC(=C4)C(C)=C3CCC(=O)O)=CC1=N2 [heme]
IL-6 and IL-8 expression (mRNA) in FLS [5]: did not have an effect | Activation of p38 in IL-36α-mediated signaling [6]: decreased activation of p38

Molecule: SEGGC136P137LIL (SEGGCPLIL; UniProt Q9UHA7 132-140, looked up, fragment) [9mer CP-motif]
Kd [7]: 3.75 ± 0.77 µM

B1: C136SP137A: IL-36α protein mutant C136S P137A (protein, UniProt Q9UHA7 6-158, looked up, variant C136S P137A)
Interleukin-36 alpha: T1 sequence (Q9UHA7 6-158) with C131S, P132A
IL-6 expression / biological activity of IL-36α mutants in FLS ([5]; 5.8 nM protein, compared to IL-36α): showed biological activity, even if reduced with respect to wild-type IL-36α

Heme binding by fluorescence quenching (in words) [2]: confirmed | Peroxidase-like activity relative to heme (100%) [4]: No significant increase
B2: IL-36α: full-length interleukin-36α, recombinantly expressed in E. coli (protein, UniProt Q9UHA7 1-158, looked up)
chain: MEKALKIDTPQQGSIQDINHRVWVLQDQTLIAVPRKDRMSPVTIALISCRHVETLEKDRGNPIYLGLNGLNLCLMCAKVGDQPTLQLKEKDIMDLYNQPEPVKSFLFYHSQSGRNSTFESVAFPGWFIAVSSEGGCPLILTQELGKANTTDFGLTMLF
modifications: full-length
notes: full-length interleukin-36α, recombinantly expressed in E. coli
IL-6 and IL-8 expression (mRNA) in FLS [5]: induced IL-6 and IL-8 expression
